3 compounds from ChEMBL document CHEMBL3593242, “Crystal structures of the apo form and a complex of human LMW-PTP with a phosphonic acid provide new evidence of a secondary site potentially related to the anchorage of natural substrates” (Bioorg Med Chem, 2015) can be followed below.

The target in assay [1] is T1, Low molecular weight phosphotyrosine protein phosphatase (Mus musculus, UniProt Q9D358).
T1 sequence (Q9D358 whole entry): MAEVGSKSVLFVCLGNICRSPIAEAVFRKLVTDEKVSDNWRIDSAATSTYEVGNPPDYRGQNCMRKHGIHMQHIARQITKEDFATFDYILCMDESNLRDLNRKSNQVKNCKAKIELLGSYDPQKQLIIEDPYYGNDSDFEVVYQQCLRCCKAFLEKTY
Nature of the assay: Competitive inhibition of mouse LMW-PTP expressed in Escherichia coli using pNPP substrate by Dixon plot.

Assay [2] can be described thus: Inhibition of bovine heart acid phosphatase. The arrangement: species or system Bos taurus.
For assay [3], the target named is Alkaline phosphatase, placental type (Homo sapiens, UniProt P05187). In words: Inhibition of human placental alkaline phosphatase using p-nitrophenyl phosphate substrate.
Sequence of Alkaline phosphatase, placental type (P05187 whole entry): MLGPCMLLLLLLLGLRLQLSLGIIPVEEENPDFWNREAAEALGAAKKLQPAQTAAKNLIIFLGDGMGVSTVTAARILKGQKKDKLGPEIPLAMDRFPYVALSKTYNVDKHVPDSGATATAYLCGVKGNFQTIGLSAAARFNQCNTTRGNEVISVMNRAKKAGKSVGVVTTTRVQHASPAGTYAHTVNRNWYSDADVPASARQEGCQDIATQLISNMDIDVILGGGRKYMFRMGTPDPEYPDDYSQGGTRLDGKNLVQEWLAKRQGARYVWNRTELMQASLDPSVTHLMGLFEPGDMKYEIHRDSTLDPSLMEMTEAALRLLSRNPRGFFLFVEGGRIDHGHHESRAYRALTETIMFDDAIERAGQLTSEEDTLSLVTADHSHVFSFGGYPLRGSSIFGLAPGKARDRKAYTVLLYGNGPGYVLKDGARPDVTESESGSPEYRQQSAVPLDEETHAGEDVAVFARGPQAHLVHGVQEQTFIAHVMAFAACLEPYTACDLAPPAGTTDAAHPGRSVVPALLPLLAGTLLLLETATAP
The target of assay [4] is T2, Ectonucleotide pyrophosphatase/phosphodiesterase family member 3 (Bos taurus, UniProt P15396).
T2 sequence (P15396 whole entry): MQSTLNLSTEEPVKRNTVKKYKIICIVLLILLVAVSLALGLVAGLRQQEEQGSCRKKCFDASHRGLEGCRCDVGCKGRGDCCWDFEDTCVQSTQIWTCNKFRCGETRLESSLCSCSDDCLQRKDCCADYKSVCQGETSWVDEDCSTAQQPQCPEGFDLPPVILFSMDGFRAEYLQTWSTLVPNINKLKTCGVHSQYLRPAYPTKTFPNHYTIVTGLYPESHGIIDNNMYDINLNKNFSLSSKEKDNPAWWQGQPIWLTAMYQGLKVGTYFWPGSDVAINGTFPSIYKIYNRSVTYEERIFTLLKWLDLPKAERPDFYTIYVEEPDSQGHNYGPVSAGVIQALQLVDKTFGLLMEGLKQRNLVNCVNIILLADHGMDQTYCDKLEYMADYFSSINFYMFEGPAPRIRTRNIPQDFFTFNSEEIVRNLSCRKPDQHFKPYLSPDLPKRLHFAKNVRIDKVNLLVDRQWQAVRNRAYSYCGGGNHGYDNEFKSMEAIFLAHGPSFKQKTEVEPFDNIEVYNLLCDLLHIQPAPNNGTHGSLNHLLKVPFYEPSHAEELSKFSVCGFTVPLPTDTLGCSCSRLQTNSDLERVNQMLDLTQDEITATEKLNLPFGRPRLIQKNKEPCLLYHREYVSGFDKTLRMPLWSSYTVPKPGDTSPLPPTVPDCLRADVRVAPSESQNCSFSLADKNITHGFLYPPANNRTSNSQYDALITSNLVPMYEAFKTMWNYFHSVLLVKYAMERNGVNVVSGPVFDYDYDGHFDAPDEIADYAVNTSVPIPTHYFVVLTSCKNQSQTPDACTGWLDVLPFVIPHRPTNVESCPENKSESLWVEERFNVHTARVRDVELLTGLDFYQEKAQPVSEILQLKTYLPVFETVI
Nature of the assay: Inhibition of bovine intestinal 5'-nucleotide phosphodiesterase using 4-nitrophenyl phenylphosphonate substrate by spectrophotometry.

Assay [5] is described as follows: Inhibition of Yersinia-protein YopH using pNPP substrate.
For assay [6], the target named is T3, Tyrosine-protein phosphatase non-receptor type 1 (Homo sapiens, UniProt P18031).
T3 sequence (P18031 whole entry): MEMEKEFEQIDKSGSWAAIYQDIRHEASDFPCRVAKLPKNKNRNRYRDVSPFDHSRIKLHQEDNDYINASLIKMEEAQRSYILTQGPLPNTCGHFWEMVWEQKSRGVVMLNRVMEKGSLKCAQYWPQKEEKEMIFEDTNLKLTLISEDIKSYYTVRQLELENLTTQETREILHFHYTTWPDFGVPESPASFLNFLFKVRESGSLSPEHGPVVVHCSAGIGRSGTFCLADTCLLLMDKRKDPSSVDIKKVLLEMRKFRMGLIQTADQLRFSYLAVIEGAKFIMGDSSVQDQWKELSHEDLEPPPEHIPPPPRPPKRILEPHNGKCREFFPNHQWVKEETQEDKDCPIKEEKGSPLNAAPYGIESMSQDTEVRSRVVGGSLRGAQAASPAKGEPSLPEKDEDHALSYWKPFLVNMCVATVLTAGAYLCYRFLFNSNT
Nature of the assay: Inhibition of PTP1B (unknown origin) using […] substrate.

Broadly, the Ki is a dissociation constant, usually derived from enzyme kinetics or from competition with a known ligand. High values mean a looser hold on the target, low ones a stronger hold on the target. In assay [1], `O=[N+]([O-])c1ccc(CP(=O)(O)O)cc1` registered a Ki of 124 µM.
For `O=P(O)(O)Cc1ccc(CCl)cc1`, affinity in assay [1] was put at a Ki of 47 µM.
On to `O=P(O)(O)Cc1ccccc1` [BENZYLPHOSPHONIC ACID], for which the Ki in assay [2] was 4600 µM; in assay [3], 580 µM; in assay [4], 1400 µM; in assay [5] it was 5000 µM; in assay [6], 3000 µM.
